Where “and” joins values, the source holds several entries; their conditions need not be identical. Equal entries are not always repeated. Structures can show the parent of a compound that is named as a salt.
Experiments:
[1] = solubility of the substance in water and solvents
[2] = in vivo resorption examination in mice: serum concentration determined microbiologically from inhibition zones; set-up: species or system Male CFLP mice; conditions: for resorption: in vivo, comparison in words; for concentration at 0.5 h: 0.5 hour after treatment, as oxolinic acid; for concentration at 0.5 h / concentration at 1 h / concentration at 2 h / concentration at 3 h / concentration at 4 h: read-out: Plasma concentrations from the calibration curve; for concentration at 1 h: 1 hour after treatment; for concentration at 2 h: 2 hours after treatment; for concentration at 3 h: 3 hours after treatment; for concentration at 4 h: 4 hours after treatment; for Diameters of the inhibition zones: parallels a, b, c
Experimental: Male CFLP mice with 25 g of an average body weight were used for these experiments. After starving for 12 hours, the animals were given oxolinic acid or choline oxolinate, respectively in a volume of 2 ml/100 g of body weight as an aqueous suspension containing 1 % of methylcellulose. The doses administered were 50 mg/kg of body weight of oxolinic acid or 70 mg/kg of body weight of choline oxolinate, respectively. )These doses are equimolar as calculated for oxolinic acid.) At 0.5, 1, 2, 3 or 4 hours, respectively after treatment the animals were killed, their blood were centrifuged and the serum were used for the microbiological determination of the concentration.
(§1) The examinations were carried out in three parallels. 50/ul of the serum were applied to an agar gel plate containing Proteus Mirabilis in a concentration of 10^7 germs/ml. Simultaneously, a calibration curve was taken up with 50 ul each of suspensions containing oxolinic acid in a concentration of 1, 2, 4, 5, 10, 50 and 100 ug/ml, respectively. The serum concentrations were calculated from the average of diameters of the inhibition zones by using the calibration curve.
(§2) The calibration values are shown in Table I and in Figue 3, respectively. The results of determinations are summarized in Tables II and III and in Figure 4, respectively.

Proteus Mirabilis = experiment: calibrating series on agar gel plate: inhibition zone against concentration; assay type: cell-based; conditions: 50 ul applied, 2 parallels
Experimental: as §1, with “The examinations were carried out in three parallels.” left out
as §2

[3] = mouse, serum, 50 mg/kg oxolinic acid or 70 mg/kg choline oxolinate
[4] = serum sampled at 1.0 hour, 50 mg/kg oxolinic acid or 70 mg/kg choline oxolinate
[5] = serum sampled at 2.0 hour, 50 mg/kg oxolinic acid or 70 mg/kg choline oxolinate
[6] = serum sampled at 3.0 hour, 50 mg/kg oxolinic acid or 70 mg/kg choline oxolinate
[7] = serum sampled at 4.0 hour, 50 mg/kg oxolinic acid or 70 mg/kg choline oxolinate

Compound | solubility in water ([1]; water) | resorption [2] | concentration at 0.5 h [2, 3] [ng/mL] | concentration at 1 h [2, 3] [ng/mL] | concentration at 2 h [2, 3] [ng/mL] | concentration at 3 h [2, 3] [ng/mL] | concentration at 4 h [2, 3] [ng/mL] | Diameters of the inhibition zones [2, 4] | Diameters of the inhibition zones [2, 5] | Diameters of the inhibition zones [2, 6] | Diameters of the inhibition zones [2, 7] | further results
CCn1cc(C(=O)O)c(=O)c2cc3c(cc21)OCO3 [choline oxolinate, 2-hydroxyethyl-trimethylammonium salt of 1-ethyl-3-carboxy-4-oxo-6,7-methylenedioxy-1,4-dihydroquinoline] | higher than 1 g/ml | substantially better resorbed | 56000 | 26000 | 15000 | 6600 | 3100 | 19.3 mm and 19.1 mm and 20.9 mm | 18.2 mm and 17.8 mm | 13.9 mm and 15.3 mm and 11.4 mm | 11.7 mm and 14.3 mm | solubility (in words) ([1]; acetone): insoluble; solubility (in words) ([1]; chloroform): dissolves well; solubility (in words) ([1]; ethanol): dissolves well; solubility (in words) ([1]; ether): insoluble; solubility (in words) ([1]; water): dissolves well; bioavailability ([2]; mice, compared with administration of oxolinic acid): sigrificantly higher; Tmax ([2]; mouse, serum, mice, 70 mg/kg choline oxolinate, first sampling, read-out: time at which a high level of serum concentration was reached): ≤ 30 min; Diameters of the inhibition zones ([2]; serum sampled at 0.5 hour, equimolar doses: 50 mg/kg oxolinic acid or 70 mg/kg choline oxolinate, 50 ul serum on Proteus Mirabilis plate): 22.6 mm and 21.9 mm
CCn1cc(C(=O)O)c(=O)c2cc3c(cc21)OCO3 [oxolinic acid, 1-ethyl--3-carboxy-4-oxo-6,7-methylenedioxy-1,4-dihydroquinoline] | 6,5 /ug/ml |  | 15000 | 14500 | 4600 | 4200 | 4800 | 17.7 mm and 18.2 mm and 17.5 mm | 15.3 mm and 17.4 mm and 8.8 mm | 14.0 mm and 16.0 mm and 14.3 mm | 16.8 mm and 14.7 mm and 14.1 mm | zone of inhibition at 1 µg/mL (Proteus Mirabilis; Proteus mirabilis, concentration 1 /ug/ml, read-out: Diameter of the inhibition zone): 8.6 mm; zone of inhibition at 2 µg/mL (Proteus Mirabilis; Proteus mirabilis, concentration 2 /ug/ml, read-out: Diameter of the inhibition zone): 11.6 mm; zone of inhibition at 4 µg/mL (Proteus Mirabilis; Proteus mirabilis, concentration 4 /ug/ml, read-out: Diameter of the inhibition zone): 14.4 mm; zone of inhibition at 5 µg/mL (Proteus Mirabilis; Proteus mirabilis, concentration 5 /ug/ml, read-out: Diameter of the inhibition zone): 15 mm; zone of inhibition at 10 µg/mL (Proteus Mirabilis; Proteus mirabilis, concentration 10 /ug/ml, read-out: Diameter of the inhibition zone): 17.9 mm; zone of inhibition at 50 µg/mL (Proteus Mirabilis; Proteus mirabilis, concentration 50 /ug/ml, read-out: Diameter of the inhibition zone): 20.7 mm; zone of inhibition at 100 µg/mL (Proteus Mirabilis; Proteus mirabilis, concentration 100 /ug/ml, read-out: Diameter of the inhibition zone): 26.5 mm; Diameter of the inhibition zone (Proteus Mirabilis; concentration 1 /ug/ml): 8.5 mm; Diameter of the inhibition zone (Proteus Mirabilis; concentration 2 /ug/ml): 11.9 mm; Diameter of the inhibition zone (Proteus Mirabilis; concentration 4 /ug/ml): 14.1 mm; Diameter of the inhibition zone (Proteus Mirabilis; concentration 5 /ug/ml): 14.7 mm; Diameter of the inhibition zone (Proteus Mirabilis; concentration 10 /ug/ml): 17.2 mm; Diameter of the inhibition zone (Proteus Mirabilis; concentration 50 /ug/ml): 19.4 mm; Diameter of the inhibition zone (Proteus Mirabilis; concentration 100 /ug/ml): 24.7 mm
CCn1cc(C(=O)[O-])c(=O)c2cc3c(cc21)OCO3.[Na+] [sodium oxolinate] |  | weaker than that of choline oxolinate |  |  |  |  |  |  |  |  |  | 

Reference: patent EP0153171A2, “New 2-hydroxyethyl-trimethylammonium salt of 1-ethyl-3-carboxy-4-oxo-6,7-methylenedioxy-1,4-dihydroquinoline, process for the preparation thereof and pharmaceutical composition containing it” (CHINOIN Gyogyszer és Vegyészeti Termékek Gyára RT., priority 1984, dated 1985)
